Data published in patent US20070149505A1, “Method of Inhibiting Adhesion Formation” (SmithKline Beecham Corporation, priority 2001, published 2007).
Several values for one entry are separate records, joined by “and”; a condition that tells them apart may be missing. Identical values can stand only once.

System: uterine horn adhesions
Experiment: rabbit uterine horn model of adhesion formation, oral + local (gel) COMPOUND 1 study
Type: in vivo, New Zealand White rabbits
Parameters: key to tenacity of the adhesions score (in parentheses), Right Horn, Bowel / tenacity of the adhesions score (in parentheses), Right Horn, Itself / tenacity of the adhesions score (in parentheses), Left Horn, Itself / tenacity of the adhesions score (in parentheses), Right Horn, Left / tenacity of the adhesions score (in parentheses), Left Horn, Bowel / tenacity of the adhesions score (in parentheses), Left Horn, Right / tenacity of the adhesions score (in parentheses), Right Horn, Bladder / tenacity of the adhesions score (in parentheses), Left Horn, Bladder: 0=No Adhesions; 1=mild, easily dissectable adhesions; 2=moderate adhesions; non-dissectable, does not tear the organ; 3=dense adhesions; non-dissectable, tears organ when removed; key to Overall score: overall adhesion score; 1 = mild, 1.5+ slightly tougher/more extensive
Conditions: for Overall, (group summary): group value ± spread, overall scores analyzed by rank order analysis
Description: The compounds of the instant invention are tested in known models of adhesion formation. These test systems include a rabbit sidewall model of adhesion formation as described in Rogers, et al., J. Invest. Surg., 9:388-391 (1996) and Rodgers, et al., […], 69(3):403-408 (1998); a rat model for adhesion formation as described in Harris, et al., Surgery, 117:663-669 (1995); and a rabbit animal model used to examine laparoscopic adhesion prevention. The rabbit uterine horn model may also be used to test the use of the instant vitronectin inhibiting compounds as inhibitors of adhesion formation. The experimental details and results using this model are detailed below.
Animals: New Zealand White rabbits, 2.4-2.7 kg, were purchased and quarantined for at least 2 days prior to use. The rabbits were randomized into appropriate control and treatment groups (see experimental designs below). The rabbits were housed on a 12:12 light:dark cycle with food and water available ad libitum. Each treatment group in all studies contained 8-10 animals.
Adhesion Model: The animals that received COMPOUND 1 or vehicle according to the experimental design (below). The rabbits that received placebo at surgery received two doses of vehicle orally. Rabbits were anesthetized with a mixture of 55 mg/kg ketamine hydrochloride and 5 mg/kg Rompum intramuscularly. Following preparation for sterile surgery, a midline laparotomy was performed. The uterine horns were exteriorized and traumatized by abrasion of the serosal surface with gauze until punctate bleeding developed. Ischemia of both uterine horns was induced by removal of the collateral blood supply. The remaining blood supply to the uterine horns was the ascending branches of the utero-vaginal arterial supply of the myometrium. The midline muscle and skin incision were closed.
After 7 or 14 days, the rabbits were terminated and adhesions were scored on a site and rabbit basis. Specifically, the percentage of the area of the horns adherent to various organs was determined. In addition, the tenacity of the adhesions was scored using the following system:
1=mild, easily dissectable adhesions
3=dense adhesions; non-dissectable, tears organ when removed
An overall score which took into account all of the above data was given to each rabbit. The following scoring system was used:
0.5+ Light, filmy pelvic adhesions involving only one organ, typically only 1 or 2 small adhesions
1.0+ Light, filmy adhesions, not extensive although slightly more extensive than 0.5
1.5+ Adhesions slightly tougher and more extensive than a 1 rating
2.0+ Tougher adhesions, a little more extensive, uterine horns usually have adhesions to both bowel and bladder
2.5+ Same as 2, except the adhesions are usually not filmy at any site and more extensive
3.0+ Tougher adhesions than 2, more extensive, both horns are attached to the bowel and bladder, some movement of the uterus possible
3.5+ Same as 3, but adhesions slightly more extensive and tougher
4.0+ Severe adhesions, both horns attached to the bowel and bladder, unable to move the uterus without tearing the adhesions
The rabbits were scored by two independent observers that were blinded to the prior treatment of the animal. If there was disagreement as to the score to be assigned to an individual animal, the higher score was given.
Statistical Analysis: The tenacity and overall scores were analyzed by rank order analysis and analysis of variance on the ranks. The percentage area of the horns involved to the various organs were compared by Student's t test.
[…] received two loading doses of 60 mg/kg COMPOUND 1 orally prior to surgery. At the end of the procedure, the animals received either nothing (surgical control), or 12 ml of placebo (10% CMC) or one of two doses (1 mg/ml or 0.1 mg/ml) of COMPOUND 1 at the site of surgical injury.
Oral+local study: Two loading doses of COMPOUND 1 (60 mg/kg, po) were administered orally prior to surgery. […]

[1] = 0.1 mg/ml COMPOUND 1, 2 Week Necropsy Time (Table 4), group mean ± spread
[2] = 0.1 mg/ml COMPOUND 1, 2 Week Necropsy Time (Table 4), individual rabbit
[3] = 0.1 mg/ml COMPOUND 1, 2 Week Necropsy Time (Table 4), individual rabbit, dash = site adhesion free
[4] = 0.1 mg/ml COMPOUND 1, 2 Week Necropsy Time (Table 8), group mean ± spread
[5] = 0.1 mg/ml COMPOUND 1, 2 Week Necropsy Time (Table 8), individual rabbit
[6] = 0.1 mg/ml COMPOUND 1, 2 Week Necropsy Time (Table 8), individual rabbit, dash = site adhesion free
[7] = 0.1 mg/ml COMPOUND 1, listed after Control/Placebo 1 Week
[8] = 0.1 mg/ml COMPOUND 1, listed after Control/Placebo 2 Weeks
[9] = 1 mg/ml COMPOUND 1, 1 Week Necropsy Time, group mean ± spread
[10] = 1 mg/ml COMPOUND 1, 1 Week Necropsy Time, individual rabbit
[11] = 1 mg/ml COMPOUND 1, 1 Week Necropsy Time, individual rabbit, dash = site adhesion free
[12] = 1 mg/ml COMPOUND 1, 2 Week Necropsy Time, group mean ± spread
[13] = 1 mg/ml COMPOUND 1, 2 Week Necropsy Time, individual rabbit
[14] = 1 mg/ml COMPOUND 1, 2 Week Necropsy Time, individual rabbit, dash = site adhesion free
[15] = 1 mg/ml COMPOUND 1, listed after Control/Placebo 1 Week
[16] = 1 mg/ml COMPOUND 1, listed after Control/Placebo 2 Weeks

## O=C(O)C[C@@H]1Cc2ccc(OCCCNc3ccccn3)cc2CN(CC(F)(F)F)C1=O [COMPOUND 1, (S)-3-oxo-8-[3-(pyridin-2-ylamino)-1-propyloxy]-2-(2,2,2-trifluoroethyl)-2,3,4,5-tetrahydro-1H-2-benzazepine-4-acetic acid]
[1]
  % Horn Involved, Left Horn, Bladder: 7.0 ± 5.0%
  % Horn Involved, Left Horn, Bowel: 10.0 ± 4.2%
  % Horn Involved, Left Horn, Itself: 22.0 ± 3.6%
  % Horn Involved, Left Horn, Right: 21.0 ± 4.8%
  % Horn Involved, Right Horn, Bladder: 9.0 ± 4.8%
  % Horn Involved, Right Horn, Bowel: 10.0 ± 4.2%
  % Horn Involved, Right Horn, Itself: 16.0 ± 5.0%
  % Horn Involved, Right Horn, Left: 21.0 ± 4.8%
0.1 mg/ml COMPOUND 1, 2 Week Necropsy Time (Table 4)
  Overall, (group summary): 30.2 ± 6.2
[2]
  Overall score: 1.5 (3×) and 2.0 (2×) and 1.0 (2×) and 0.5 and 2.5 (2×)
  tenacity of the adhesions score (in parentheses), Left Horn, Bladder: 1
  tenacity of the adhesions score (in parentheses), Left Horn, Bowel: 1
  tenacity of the adhesions score (in parentheses), Left Horn, Itself: 1 (7×) and 2 (2×)
  tenacity of the adhesions score (in parentheses), Left Horn, Right: 1 (6×) and 2 (2×)
  tenacity of the adhesions score (in parentheses), Right Horn, Bladder: 1
  tenacity of the adhesions score (in parentheses), Right Horn, Bowel: 1
  tenacity of the adhesions score (in parentheses), Right Horn, Itself: 1 (4×) and 2 (2×)
  tenacity of the adhesions score (in parentheses), Right Horn, Left: 1 (6×) and 2 (2×)
[3]
  % Horn Involved, Left Horn, Bladder: 10% (2×) and 50%
  % Horn Involved, Left Horn, Bowel: 10% (2×) and 20% (2×) and 40%
  % Horn Involved, Left Horn, Itself: 40% and 30% (3×) and 20% (4×) and 10%
  % Horn Involved, Left Horn, Right: 30% (3×) and 40% (2×) and 20% and 10% (2×)
  % Horn Involved, Right Horn, Bladder: 10% (4×) and 50%
  % Horn Involved, Right Horn, Bowel: 10% (2×) and 20% (2×) and 40%
  % Horn Involved, Right Horn, Itself: 40% and 30% (3×) and 10% and 20%
  % Horn Involved, Right Horn, Left: 30% (3×) and 40% (2×) and 20% and 10% (2×)
[4]
  % Horn Involved, Left Horn, Bladder: 7.0 ± 3.4%
  % Horn Involved, Left Horn, Bowel: 15.0 ± 5.0%
  % Horn Involved, Left Horn, Itself: 23.0 ± 5.6%
  % Horn Involved, Left Horn, Right: 15.0 ± 4.8%
  % Horn Involved, Right Horn, Bladder: 7.0 ± 3.4%
  % Horn Involved, Right Horn, Bowel: 13.0 ± 4.7%
  % Horn Involved, Right Horn, Itself: 11.0 ± 3.5%
  % Horn Involved, Right Horn, Left: 15.0 ± 4.8%
0.1 mg/ml COMPOUND 1, 2 Week Necropsy Time (Table 8)
  Overall, (group summary): 22.0 ± 4.8
[5]
  Overall score: 2.0 (2×) and 1.5 (4×) and 1.0 (2×) and 0.5 (2×)
  tenacity of the adhesions score (in parentheses), Left Horn, Bladder: 1
  tenacity of the adhesions score (in parentheses), Left Horn, Bowel: 1
  tenacity of the adhesions score (in parentheses), Left Horn, Itself: 1
  tenacity of the adhesions score (in parentheses), Left Horn, Right: 1
  tenacity of the adhesions score (in parentheses), Right Horn, Bladder: 1
  tenacity of the adhesions score (in parentheses), Right Horn, Bowel: 1
  tenacity of the adhesions score (in parentheses), Right Horn, Itself: 1
  tenacity of the adhesions score (in parentheses), Right Horn, Left: 1
[6]
  % Horn Involved, Left Horn, Bladder: 30% and 10% (2×) and 20%
  % Horn Involved, Left Horn, Bowel: 40% and 30% (3×) and 10% (2×)
  % Horn Involved, Left Horn, Itself: 30% (4×) and 50% and 20% and 40%
  % Horn Involved, Left Horn, Right: 10% and 40% and 30% (2×) and 20% (2×)
  % Horn Involved, Right Horn, Bladder: 30% and 10% (2×) and 20%
  % Horn Involved, Right Horn, Bowel: 40% and 30% (2×) and 10% (3×)
  % Horn Involved, Right Horn, Itself: 30% (2×) and 10% (5×)
  % Horn Involved, Right Horn, Left: 10% and 40% and 30% (2×) and 20% (2×)
[7]
  # Sites Adhesion Free: 34
  % Sites Adhesion Free: 42.5%
[8]
  # Sites Adhesion Free: 31
  % Sites Adhesion Free: 38.75%
[9]
  % Horn Involved, Left Horn, Bladder: 0.0 ± 0.0%
  % Horn Involved, Left Horn, Bowel: 18.0 ± 4.2%
  % Horn Involved, Left Horn, Itself: 18.0 ± 4.7%
  % Horn Involved, Left Horn, Right: 15.0 ± 4.0%
  % Horn Involved, Right Horn, Bladder: 3.0 ± 1.5%
  % Horn Involved, Right Horn, Bowel: 19.0 ± 3.8%
  % Horn Involved, Right Horn, Itself: 10.0 ± 4.2%
  % Horn Involved, Right Horn, Left: 15.0 ± 4.0%
1 mg/ml COMPOUND 1, 1 Week Necropsy Time
  Overall, (group summary): 21.3 ± 3.9
[10]
  Overall score: 1.0 (3×) and 0.5 and 1.5 (5×) and 2.0
  tenacity of the adhesions score (in parentheses), Left Horn, Bowel: 1
  tenacity of the adhesions score (in parentheses), Left Horn, Itself: 1
  tenacity of the adhesions score (in parentheses), Left Horn, Right: 1 (6×) and 2
  tenacity of the adhesions score (in parentheses), Right Horn, Bladder: 1
  tenacity of the adhesions score (in parentheses), Right Horn, Bowel: 1
  tenacity of the adhesions score (in parentheses), Right Horn, Itself: 1
  tenacity of the adhesions score (in parentheses), Right Horn, Left: 1 (6×) and 2
[11]
  % Horn Involved, Left Horn, Bowel: 30% (4×) and 20% (3×)
  % Horn Involved, Left Horn, Itself: 20% (2×) and 30% (3×) and 10% and 40%
  % Horn Involved, Left Horn, Right: 20% (2×) and 10% (2×) and 30% (3×)
  % Horn Involved, Right Horn, Bladder: 10%
  % Horn Involved, Right Horn, Bowel: 30% (4×) and 10% and 20% (3×)
  % Horn Involved, Right Horn, Itself: 20% (2×) and 10% (2×) and 40%
  % Horn Involved, Right Horn, Left: 20% (2×) and 10% (2×) and 30% (3×)
[12]
  % Horn Involved, Left Horn, Bladder: 4.0 ± 2.7%
  % Horn Involved, Left Horn, Bowel: 17.0 ± 5.2%
  % Horn Involved, Left Horn, Itself: 18.0 ± 4.2%
  % Horn Involved, Left Horn, Right: 5.0 ± 3.4%
  % Horn Involved, Right Horn, Bladder: 4.0 ± 2.2%
  % Horn Involved, Right Horn, Bowel: 13.0 ± 4.0%
  % Horn Involved, Right Horn, Itself: 13.0 ± 5.0%
  % Horn Involved, Right Horn, Left: 5.0 ± 3.4%
1 mg/ml COMPOUND 1, 2 Week Necropsy Time
  Overall, (group summary): 21.2 ± 5.5
[13]
  Overall score: 1.0 (5×) and 2.5 and 1.5 (2×) and 0.5 and 2.0
  tenacity of the adhesions score (in parentheses), Left Horn, Bladder: 2 and 1
  tenacity of the adhesions score (in parentheses), Left Horn, Bowel: 2 (2×) and 1 (4×)
  tenacity of the adhesions score (in parentheses), Left Horn, Itself: 1 (6×) and 2 (2×)
  tenacity of the adhesions score (in parentheses), Left Horn, Right: 2 and 1
  tenacity of the adhesions score (in parentheses), Right Horn, Bladder: 1
  tenacity of the adhesions score (in parentheses), Right Horn, Bowel: 1 (6×) and 2
  tenacity of the adhesions score (in parentheses), Right Horn, Itself: 1 (4×) and 2
  tenacity of the adhesions score (in parentheses), Right Horn, Left: 2 and 1
[14]
  % Horn Involved, Left Horn, Bladder: 20%
  % Horn Involved, Left Horn, Bowel: 30% (4×) and 10% and 40%
  % Horn Involved, Left Horn, Itself: 20% (3×) and 30% (2×) and 10% (2×) and 40%
  % Horn Involved, Left Horn, Right: 30% and 20%
  % Horn Involved, Right Horn, Bladder: 10% (2×) and 20%
  % Horn Involved, Right Horn, Bowel: 10% (4×) and 30% (3×)
  % Horn Involved, Right Horn, Itself: 20% and 30% (2×) and 10% and 40%
  % Horn Involved, Right Horn, Left: 30% and 20%
[15]
  # Sites Adhesion Free: 36
  % Sites Adhesion Free: 45.0%
[16]
  # Sites Adhesion Free: 45
  % Sites Adhesion Free: 56.25%
